In the CheMixHub viscosity set:
Several values for one entry are separate records, joined by “and”; a condition that tells them apart may be missing. Identical values can stand only once. ± gives the uncertainty stated by the source.

Test: xn = mol fraction of the nth substance listed

Cc1ccccc1 + CCCCO
viscosity [mPa·s]
Details	298.15 K	303.15 K	308.15 K	313.15 K	318.15 K
101 kPa, x1 = 0.092	2.01 ± 0.07	1.769 ± 0.062	1.581 ± 0.056	1.393 ± 0.05	1.292 ± 0.047
101 kPa, x1 = 0.1987	1.59 ± 0.057	1.459 ± 0.052	1.323 ± 0.048	1.199 ± 0.044	1.106 ± 0.041
101 kPa, x1 = 0.2983	1.279 ± 0.046	1.181 ± 0.043	1.076 ± 0.04	0.9827 ± 0.037	0.9514 ± 0.036
101 kPa, x1 = 0.393	1.084 ± 0.04	1.004 ± 0.037	0.9192 ± 0.035	0.8418 ± 0.032	0.8198 ± 0.032
101 kPa, x1 = 0.5091	0.8978 ± 0.034	0.8372 ± 0.032	0.7739 ± 0.03	0.714 ± 0.028	0.7048 ± 0.028
101 kPa, x2 = 0.12	0.56 ± 0.006	–	–	–	–
101 kPa, x2 = 0.24	0.635 ± 0.006	–	–	–	–
101 kPa, x2 = 0.35	0.715 ± 0.007	–	–	–	–
101 kPa, x2 = 0.45	0.84 ± 0.008	–	–	–	–
101 kPa, x2 = 0.55	0.997 ± 0.01	–	–	–	–
101 kPa, x2 = 0.65	1.199 ± 0.012	–	–	–	–
101 kPa, x2 = 0.74	1.441 ± 0.014	–	–	–	–
101 kPa, x2 = 0.83	1.73 ± 0.017	–	–	–	–
101 kPa, x2 = 0.92	2.12 ± 0.021	–	–	–	–
101.33 kPa, x1 = 0.0859	–	1.86 ± 0.03	1.656 ± 0.027	1.489 ± 0.024	–
101.33 kPa, x1 = 0.2006	–	1.452 ± 0.023	1.311 ± 0.021	1.193 ± 0.02	–
101.33 kPa, x1 = 0.2972	–	1.175 ± 0.019	1.065 ± 0.018	0.979 ± 0.016	–
101.33 kPa, x1 = 0.3877	–	0.999 ± 0.017	0.911 ± 0.015	0.84 ± 0.014	–
101.33 kPa, x1 = 0.5025	–	0.833 ± 0.014	0.77 ± 0.013	0.713 ± 0.013	–
101.33 kPa, x1 = 0.6013	–	0.726 ± 0.013	0.675 ± 0.012	0.629 ± 0.011	–
101.33 kPa, x1 = 0.7617	–	0.59 ± 0.011	0.557 ± 0.01	0.524 ± 0.01	–
101.33 kPa, x1 = 0.8121	–	0.571 ± 0.01	0.534 ± 0.01	0.507 ± 0.007	–
101.33 kPa, x1 = 0.947	–	0.526 ± 0.01	0.498 ± 0.007	0.478 ± 0.007	–

c1ccc2ccccc2c1 + CCCCO
viscosity
Details	303.15 K	308.15 K	313.15 K	318.15 K	323.15 K
101 kPa, x1 = 0.07958	2.076 ± 0.053 mPa·s	1.848 ± 0.047 mPa·s	1.633 ± 0.042 mPa·s	1.461 ± 0.037 mPa·s	1.312 ± 0.033 mPa·s
101 kPa, x1 = 0.1174	–	1.796 ± 0.046 mPa·s	1.601 ± 0.041 mPa·s	1.427 ± 0.036 mPa·s	1.28 ± 0.032 mPa·s
101.33 kPa, x1 = 0.06489	–	–	1.67 ± 0.044 mPa·s	–	1.33 ± 0.035 mPa·s
101.33 kPa, x1 = 0.07958	2.076 ± 0.015 mPa·s	1.848 ± 0.013 mPa·s	1.633 ± 0.011 mPa·s and 1.633 ± 0.043 mPa·s	1.461 ± 0.01 mPa·s	1.312 ± 0.0092 mPa·s and 1.312 ± 0.035 mPa·s
101.33 kPa, x1 = 0.09537	–	–	1.624 ± 0.043 mPa·s	–	1.3 ± 0.035 mPa·s
101.33 kPa, x1 = 0.1174	–	–	1.601 ± 0.042 mPa·s	–	1.28 ± 0.034 mPa·s
101.33 kPa, x1 = 0.12	–	1.796 ± 0.013 mPa·s	1.601 ± 0.011 mPa·s	1.427 ± 0.01 mPa·s	1.28 ± 0.009 mPa·s
101.33 kPa, x1 = 0.1436	–	–	1.567 ± 0.041 mPa·s	–	1.26 ± 0.034 mPa·s

CC(C)=O + CCCCn1cc[n+](C)c1.F[B-](F)(F)F
Details	viscosity [mPa·s]
298.15 K, 101 kPa, x1 = 0.0973	77.6 ± 14

C1CCOC1 + CCCO
viscosity [mPa·s], 101 kPa
Details	298.15 K	303 K	313 K
x1 = 0.0992	–	1.22 ± 0.08	1.04 ± 0.07
x1 = 0.1999	–	1.08 ± 0.07	0.9 ± 0.06
x1 = 0.2846	–	1 ± 0.07	0.85 ± 0.06
x1 = 0.39	–	0.91 ± 0.06	0.77 ± 0.05
x1 = 0.5	0.7603 ± 0.02	–	–
x1 = 0.5146	–	0.8 ± 0.06	0.69 ± 0.05
x1 = 0.5918	–	0.73 ± 0.05	0.65 ± 0.05
x1 = 0.7012	–	0.64 ± 0.05	0.57 ± 0.04
x1 = 0.8028	–	0.57 ± 0.04	0.51 ± 0.04
x1 = 0.894	–	0.5 ± 0.04	0.47 ± 0.04
x1 = 0.9761	–	0.44 ± 0.03	0.42 ± 0.03
